Test results taken from US20240398737A1, “FUNCTIONALIZED LONG-CHAIN HYDROCARBON MONO- AND DI-CARBOXYLIC ACIDS AND DERIVATIVES THEREOF, AND THEIR USE FOR THE PREVENTION OR TREATMENT OF DISEASE” (Espervita Therapeutics, Inc., priority 2021, published 2024).
Where “and” joins values, the source holds several entries; their conditions need not be identical. Equal entries are not always repeated.

Tests used:
Type in all cases: biochemical
MELK = MELK (Homo sapiens (Human), UniProt Q14680); assay: Wild type kinase screen: MELK; details: compound at 10 μM, 10 μM ATP, Data 1 and Data 2 duplicates
MAPKAPK2 = MAPKAPK2 (Homo sapiens (Human), UniProt P49137); assay: Wild type kinase screen: MAPKAPK2; details: compound at 10 μM, 10 μM ATP, Data 1 and Data 2 duplicates
Sequence of MAPKAPK2 (P49137 whole entry, species assumed): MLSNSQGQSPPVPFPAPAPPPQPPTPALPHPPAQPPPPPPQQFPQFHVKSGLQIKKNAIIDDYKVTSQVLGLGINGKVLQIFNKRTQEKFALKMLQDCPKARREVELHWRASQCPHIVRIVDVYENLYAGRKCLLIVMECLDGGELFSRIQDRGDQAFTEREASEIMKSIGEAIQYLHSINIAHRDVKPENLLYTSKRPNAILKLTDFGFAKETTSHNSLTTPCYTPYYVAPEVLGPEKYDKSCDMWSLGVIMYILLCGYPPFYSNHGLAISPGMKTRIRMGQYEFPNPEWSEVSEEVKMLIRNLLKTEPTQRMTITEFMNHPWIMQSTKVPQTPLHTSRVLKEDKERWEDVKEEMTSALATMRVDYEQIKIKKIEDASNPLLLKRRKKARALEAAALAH

FLT1/VEGFR1 = FLT1/VEGFR1 (Homo sapiens (Human), UniProt P17948); assay: Wild type kinase screen: FLT1/VEGFR1; details: compound at 10 μM, 10 μM ATP, Data 1 and Data 2 duplicates
Sequence of FLT1/VEGFR1 (P17948 27-1338): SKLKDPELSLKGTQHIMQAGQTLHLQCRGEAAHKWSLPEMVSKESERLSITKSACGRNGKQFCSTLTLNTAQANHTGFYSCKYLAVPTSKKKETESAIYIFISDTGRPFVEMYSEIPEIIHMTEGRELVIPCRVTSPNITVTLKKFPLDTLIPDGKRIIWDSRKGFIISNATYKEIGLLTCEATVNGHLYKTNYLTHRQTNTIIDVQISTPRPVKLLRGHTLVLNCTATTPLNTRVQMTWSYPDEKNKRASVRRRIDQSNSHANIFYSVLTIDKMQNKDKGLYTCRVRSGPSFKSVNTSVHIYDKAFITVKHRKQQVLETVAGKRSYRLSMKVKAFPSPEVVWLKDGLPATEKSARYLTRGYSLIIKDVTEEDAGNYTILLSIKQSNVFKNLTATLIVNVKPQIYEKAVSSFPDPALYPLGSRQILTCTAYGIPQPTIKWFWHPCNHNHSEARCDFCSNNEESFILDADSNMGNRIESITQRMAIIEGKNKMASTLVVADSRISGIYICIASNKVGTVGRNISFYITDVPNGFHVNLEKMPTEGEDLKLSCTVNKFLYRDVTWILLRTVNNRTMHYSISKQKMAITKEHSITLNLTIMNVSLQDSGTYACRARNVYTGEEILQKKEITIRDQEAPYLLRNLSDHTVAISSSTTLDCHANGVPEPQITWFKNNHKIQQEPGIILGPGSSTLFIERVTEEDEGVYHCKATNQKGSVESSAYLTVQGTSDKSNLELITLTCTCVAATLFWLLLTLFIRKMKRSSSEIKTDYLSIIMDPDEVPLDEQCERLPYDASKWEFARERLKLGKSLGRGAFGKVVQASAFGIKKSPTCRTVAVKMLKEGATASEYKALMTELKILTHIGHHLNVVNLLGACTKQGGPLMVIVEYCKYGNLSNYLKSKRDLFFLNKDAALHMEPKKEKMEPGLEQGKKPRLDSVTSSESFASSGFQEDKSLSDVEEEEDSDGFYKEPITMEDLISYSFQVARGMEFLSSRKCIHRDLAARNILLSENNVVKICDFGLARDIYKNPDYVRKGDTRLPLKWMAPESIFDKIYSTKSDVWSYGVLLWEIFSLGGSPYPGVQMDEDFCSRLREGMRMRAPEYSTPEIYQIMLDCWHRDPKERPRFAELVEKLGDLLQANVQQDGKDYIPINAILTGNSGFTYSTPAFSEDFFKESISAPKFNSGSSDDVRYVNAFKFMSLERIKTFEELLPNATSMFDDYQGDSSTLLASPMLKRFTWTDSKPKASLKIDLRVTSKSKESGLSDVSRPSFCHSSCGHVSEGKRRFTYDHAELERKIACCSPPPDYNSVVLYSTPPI

TNIK = TNIK (Homo sapiens (Human), UniProt Q9UKE5); assay: Wild type kinase screen: TNIK; details: compound at 10 μM, 10 μM ATP, Data 1 and Data 2 duplicates
MLCK/MYLK = MLCK/MYLK (Homo sapiens (Human), UniProt Q15746); assay: Wild type kinase screen: MLCK/MYLK; details: compound at 10 μM, 10 μM ATP, Data 1 and Data 2 duplicates
PIM3 = PIM3 (Homo sapiens (Human), UniProt Q86V86); assay: Wild type kinase screen: PIM3; details: compound at 10 μM, 10 μM ATP, Data 1 and Data 2 duplicates
ERK7/MAPK15 = ERK7/MAPK15 (Homo sapiens (Human), UniProt Q8TD08); assay: Wild type kinase screen: ERK7/MAPK15; details: compound at 10 μM, 10 μM ATP, Data 1 and Data 2 duplicates
CAMK2g = CAMK2g (Homo sapiens (Human), UniProt Q13555); assay: Wild type kinase screen: CAMK2g; details: compound at 10 μM, 10 μM ATP, Data 1 and Data 2 duplicates
c-Kit = c-Kit (Homo sapiens (Human), UniProt P10721); assay: Wild type kinase screen: c-Kit; details: compound at 10 μM, 10 μM ATP, Data 1 and Data 2 duplicates
Sequence of c-Kit (P10721 26-976): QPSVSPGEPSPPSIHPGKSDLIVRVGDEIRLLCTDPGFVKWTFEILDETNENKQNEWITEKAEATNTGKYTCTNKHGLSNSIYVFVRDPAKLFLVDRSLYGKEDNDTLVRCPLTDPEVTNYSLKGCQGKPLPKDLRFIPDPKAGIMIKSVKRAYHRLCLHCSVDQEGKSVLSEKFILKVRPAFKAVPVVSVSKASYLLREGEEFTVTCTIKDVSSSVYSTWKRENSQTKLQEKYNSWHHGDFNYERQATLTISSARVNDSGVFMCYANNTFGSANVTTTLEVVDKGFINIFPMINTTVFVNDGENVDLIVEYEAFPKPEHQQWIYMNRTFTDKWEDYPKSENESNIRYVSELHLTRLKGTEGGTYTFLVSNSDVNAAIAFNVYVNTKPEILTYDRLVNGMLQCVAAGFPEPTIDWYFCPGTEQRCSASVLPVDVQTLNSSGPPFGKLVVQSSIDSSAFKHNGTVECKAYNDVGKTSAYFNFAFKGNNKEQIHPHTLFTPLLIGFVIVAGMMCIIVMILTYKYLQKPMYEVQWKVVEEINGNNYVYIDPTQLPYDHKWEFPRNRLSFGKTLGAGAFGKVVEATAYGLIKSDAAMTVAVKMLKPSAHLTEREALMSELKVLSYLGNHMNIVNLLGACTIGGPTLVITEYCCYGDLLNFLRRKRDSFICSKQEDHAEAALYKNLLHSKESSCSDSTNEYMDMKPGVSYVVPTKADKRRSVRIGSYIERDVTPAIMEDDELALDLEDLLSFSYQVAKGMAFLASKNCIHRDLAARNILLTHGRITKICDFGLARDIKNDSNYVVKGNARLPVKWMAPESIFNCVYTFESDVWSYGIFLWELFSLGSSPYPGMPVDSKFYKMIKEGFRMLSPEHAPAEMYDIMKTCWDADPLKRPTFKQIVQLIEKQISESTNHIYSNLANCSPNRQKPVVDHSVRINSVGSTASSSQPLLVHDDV

human ACLY = human ACLY (Homo sapiens (Human), UniProt P53396); assay: ATP-citrate lyase (ACLY) enzymatic assay (ADP-Glo); details: recombinant human ACLY; 10 concentrations from 300 μM; Runs 1-3; read-out: Compound IC50 (M) ACLY
Description: ATP citrate lyase was obtained from Sino Biological Inc. Cat #11769-H07B, Lot #LC08DE1701. It was prepared from a DNA sequence encoding the human ACLY (P53396) (Met 1-Met 1101) expressed in Baculovirus-Insect Cells, with a polyhistidine tag at the N-terminus. The recombinant human ACLY consists of 1120 amino acids and has a calculated molecular mass of 123 kDa. It migrates as an approximately 110 kDa band in SDS-PAGE under reducing conditions. The enzyme came as a lyophilized powder in sterile 20 mM Tris, 500 mM NaCl, pH 8.0, 10% glycine. Normally 5%-8% trehalose and mannitol are added as protectants before lyophilization. The recombinant human ACLY from Sino Biological was formulated in 45 mM Tris-HCl, pH 8.0, 124 mM NaCl, 2.4 mM KCl, 18 mM glutathione, 10% glycerol, and 3 mM DTT.
To detect ADP produced from ACL assay, the ADP-Glo™ assay format from Promega, Madison, WI, was used, to detect the conversion of ATP to ADP. […] This assay is performed in two steps: i) after the ACL-mediated enzymatic reaction that utilizes ATP and produces ADP, ADP-Glo™ Reagent is added to terminate the kinase reaction and deplete the remaining ATP, and ii) the Kinase Detection Reagent is added to convert ADP to ATP and allow the newly synthesized ATP to be measured using a luciferase/luciferin reaction. The light generated, measured in a luminometer, correlates to the amount of ADP generated in the ACL assay, which is indicative of ACL activity.
Data represent nM or μM ADP produced, % Activity (relative to no inhibitor controls), and curve fits were performed by GraphPad Prism software. The IC50 concentration-response curves were generated for ADPGlo™ using recombinant human ACL from Sino Biologicals Inc.

RIPK4 = RIPK4 (Homo sapiens (Human), UniProt P57078); assay: Wild type kinase screen: RIPK4; details: compound at 10 μM, 10 μM ATP, Data 1 and Data 2 duplicates
BMX/ETK = BMX/ETK (Homo sapiens (Human), UniProt P51813); assay: Wild type kinase screen: BMX/ETK; details: compound at 10 μM, 10 μM ATP, Data 1 and Data 2 duplicates
Sequence of BMX/ETK (P51813 whole entry): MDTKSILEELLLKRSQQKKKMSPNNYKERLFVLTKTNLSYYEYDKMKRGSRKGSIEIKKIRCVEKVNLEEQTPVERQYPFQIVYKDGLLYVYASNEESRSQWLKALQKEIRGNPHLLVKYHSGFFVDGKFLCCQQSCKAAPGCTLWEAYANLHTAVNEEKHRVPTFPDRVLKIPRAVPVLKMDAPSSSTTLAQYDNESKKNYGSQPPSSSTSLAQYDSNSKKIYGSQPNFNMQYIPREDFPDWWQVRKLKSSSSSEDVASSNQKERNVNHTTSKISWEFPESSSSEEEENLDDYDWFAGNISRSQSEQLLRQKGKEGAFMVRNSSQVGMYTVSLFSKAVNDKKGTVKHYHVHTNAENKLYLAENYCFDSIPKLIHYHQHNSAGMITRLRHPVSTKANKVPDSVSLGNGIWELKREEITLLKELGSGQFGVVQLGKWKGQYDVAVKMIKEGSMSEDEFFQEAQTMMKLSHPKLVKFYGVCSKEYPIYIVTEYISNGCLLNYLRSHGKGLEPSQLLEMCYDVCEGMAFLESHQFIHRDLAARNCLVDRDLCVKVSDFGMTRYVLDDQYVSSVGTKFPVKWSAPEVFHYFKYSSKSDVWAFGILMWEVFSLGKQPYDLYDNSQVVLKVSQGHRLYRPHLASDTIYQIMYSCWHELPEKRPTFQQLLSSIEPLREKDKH

Aurora B = Aurora B (Homo sapiens (Human), UniProt Q96GD4); assay: Wild type kinase screen: Aurora B; details: compound at 10 μM, 10 μM ATP, Data 1 and Data 2 duplicates
AURORA C = AURORA C (Homo sapiens (Human), UniProt Q9UQB9); assay: Wild type kinase screen: AURORA C; details: compound at 10 μM, 10 μM ATP, Data 1 and Data 2 duplicates
Sequence of AURORA C (Q9UQB9 whole entry): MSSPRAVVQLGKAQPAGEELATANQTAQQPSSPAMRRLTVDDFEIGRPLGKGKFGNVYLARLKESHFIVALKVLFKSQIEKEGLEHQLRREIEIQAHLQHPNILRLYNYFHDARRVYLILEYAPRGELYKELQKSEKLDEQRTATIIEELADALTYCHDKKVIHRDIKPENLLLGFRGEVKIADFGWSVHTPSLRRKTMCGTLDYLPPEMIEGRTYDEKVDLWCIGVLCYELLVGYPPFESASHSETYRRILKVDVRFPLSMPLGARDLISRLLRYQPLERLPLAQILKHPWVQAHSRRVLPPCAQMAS

DDR2 = DDR2 (Homo sapiens (Human), UniProt Q16832); assay: Wild type kinase screen: DDR2; details: compound at 10 μM, 10 μM ATP, Data 1 and Data 2 duplicates
GSK3b = GSK3b (Homo sapiens (Human), UniProt P49841); assay: Wild type kinase screen: GSK3b; details: compound at 10 μM, 10 μM ATP, Data 1 and Data 2 duplicates
Aurora A = Aurora A (Homo sapiens (Human), UniProt O14965); assay: Wild type kinase screen: Aurora A; details: compound at 10 μM, 10 μM ATP, Data 1 and Data 2 duplicates
Human ACC1 = Human ACC1 (Homo sapiens (Human), UniProt Q13085); assay: ACC1 enzymatic assay (ADP-Glo); details: recombinant human ACC1 5 nM; 10 concentrations from 300 μM; Runs 1-3; read-out: Compound IC50 (M) ACC1
Description: (§1) Human ACC1 (Cat #50202 Lot #120830) and ACC2 (Cat #50201 Lot #160217) were obtained from BPS Biosciences, San Diego, CA 92121. Human ACC1 had C-terminal flag and His-tags with a MW of 270 KDa after purification from Baculovirus infected Sf9 cell expression system and came as a solution in 50 mM Tris-HCl, pH 8.0, 500 mM NaCl, 10% glycerol, 1 mM DTT, 100 μg/ml FLAG peptide with 70% purity. The stock concentration was 0.25 mg/ml corresponding to 0.926 μM. Human ACC2 was also purified from Baculovirus infected Sf9 expression system. […] The stock concentration was 0.1 mg/ml corresponding to 0.36 μM. The assay buffer for measuring the activity of ACC contained: 30 mM HEPES (pH 7.4), 2 mM MgCl2, 0.01% Brij35, 2 mM DTT, 1% DMSO (solvent for compound). For ACC1 and ACC2 assays, the following concentrations of substrate and cofactors were used: 12 mM NaHCO3, 10 μM acetyl CoA, 10 μM ATP, and 2 mM K-citrate. The recombinant human enzyme was used at 5 nM for ACC1 and 1 nM for ACC2. In brief, enzyme alone in the above buffer without substrate was used for background. All test materials were dissolved in 100% DMSO using acoustic technology (Echo550). The prepared solution was preincubated for 15 min followed by the addition of 5 μL/well of ADP standard. ATP was then added to start the reaction. The assay contents were spun and briefly shaken followed by incubation at room temperature for 1 h. At the end of completion of assay, 5 μL of ADP-Glo was added to each well to stop the reaction. The contents were mixed, spun and incubated at room temperature for 40 min followed by the addition of 10 μL/well of ADP detection reagent. The contents were spun, mixed and covered with plastic to measure luminescence. […] The light generated, measured in a luminometer, correlates to the amount of ADP generated in the ACC assay, which is indicative of ACC activity.
(§2) The enzyme concentrations for ACC1 and ACC2 were 5 nM and 1 nM, respectively.
Data represent nM or μM ADP produced, % Activity (relative to no inhibitor controls), and curve fits were performed by GraphPad Prism software. […]

Human ACC2 = Human ACC2 (Homo sapiens (Human), UniProt O00763); assay: ACC2 enzymatic assay (ADP-Glo); details: recombinant human ACC2 1 nM; 10 concentrations from 300 μM; Runs 1-3; read-out: Compound IC50 (M) ACC2
Description: as §1, §2
Data represent nM or μM ADP produced, % Activity (relative to no inhibitor controls), and curve fits were performed by GraphPad Prism software. The IC50 concentration-response curves were generated for both the ACC1 and ACC2 assays using recombinant human ACC.

LIMK1 = LIMK1 (Homo sapiens (Human), UniProt P53667); assay: Wild type kinase screen: LIMK1; details: compound at 10 μM, 10 μM ATP, Data 1 and Data 2 duplicates
Sequence of LIMK1 (P53667 whole entry, species assumed): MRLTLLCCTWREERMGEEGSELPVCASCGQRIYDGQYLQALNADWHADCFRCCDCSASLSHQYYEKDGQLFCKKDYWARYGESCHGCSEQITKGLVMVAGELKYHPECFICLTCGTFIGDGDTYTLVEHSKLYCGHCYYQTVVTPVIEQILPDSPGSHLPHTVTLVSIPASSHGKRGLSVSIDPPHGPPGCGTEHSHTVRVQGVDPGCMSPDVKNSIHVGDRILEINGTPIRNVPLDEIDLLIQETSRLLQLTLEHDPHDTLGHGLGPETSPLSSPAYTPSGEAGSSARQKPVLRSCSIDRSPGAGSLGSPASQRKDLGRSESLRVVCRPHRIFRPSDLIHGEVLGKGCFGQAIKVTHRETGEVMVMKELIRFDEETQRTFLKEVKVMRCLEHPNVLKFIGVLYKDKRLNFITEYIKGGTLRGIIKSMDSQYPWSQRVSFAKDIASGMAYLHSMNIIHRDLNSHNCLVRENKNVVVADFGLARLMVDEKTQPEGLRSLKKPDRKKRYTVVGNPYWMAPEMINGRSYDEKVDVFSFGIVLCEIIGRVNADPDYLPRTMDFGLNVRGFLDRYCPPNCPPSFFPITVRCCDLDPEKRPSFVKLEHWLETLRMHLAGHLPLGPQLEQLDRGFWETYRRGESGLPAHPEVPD

NEK2 = NEK2 (Homo sapiens (Human), UniProt P51955); assay: Wild type kinase screen: NEK2; details: compound at 10 μM, 10 μM ATP, Data 1 and Data 2 duplicates
Sequence of NEK2 (P51955 whole entry, species assumed): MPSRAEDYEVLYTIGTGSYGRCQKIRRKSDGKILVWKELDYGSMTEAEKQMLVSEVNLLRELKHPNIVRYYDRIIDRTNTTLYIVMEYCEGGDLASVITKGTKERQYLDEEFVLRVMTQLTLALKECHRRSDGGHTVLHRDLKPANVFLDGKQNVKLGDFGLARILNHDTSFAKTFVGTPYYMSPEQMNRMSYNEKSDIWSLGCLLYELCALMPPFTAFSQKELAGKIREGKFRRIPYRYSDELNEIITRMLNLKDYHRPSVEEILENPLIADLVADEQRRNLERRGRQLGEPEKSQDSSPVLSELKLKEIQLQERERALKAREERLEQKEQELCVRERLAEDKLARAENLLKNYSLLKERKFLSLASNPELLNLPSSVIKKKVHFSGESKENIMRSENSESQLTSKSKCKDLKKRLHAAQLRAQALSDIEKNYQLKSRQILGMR

## CC(C)(CCCCc1ccc(CCCCC(C)(C)C(=O)SCCNC(=O)CCNC(=O)[C@H](O)C(C)(C)COP(=O)(O)OP(=O)(O)OC[C@H]2O[C@@H](n3cnc4c(N)ncnc43)[C@H](O)[C@@H]2OP(=O)(O)O)cc1)C(=O)O [Compound I-1-CoA, 6-[4-(5-carboxy-5-methylhexyl)-phenyl]-2,2-dimethylhexanoic acid Coenzyme A ester]
MELK
  % Enzyme Activity (relative to DMSO controls): 23.02% and 21.99%
MAPKAPK2
  % Enzyme Activity (relative to DMSO controls): 85.04% and 84.66%
FLT1/VEGFR1
  % Enzyme Activity (relative to DMSO controls): 84.17% and 82.94%
TNIK
  % Enzyme Activity (relative to DMSO controls): 39.22% and 36.50%
MLCK/MYLK
  % Enzyme Activity (relative to DMSO controls): 2.06% and −0.71%
PIM3
  % Enzyme Activity (relative to DMSO controls): 73.92% and 70.32%
ERK7/MAPK15
  % Enzyme Activity (relative to DMSO controls): 51.57% and 45.02%
CAMK2g
  % Enzyme Activity (relative to DMSO controls): 53.91% and 53.05%
c-Kit
  % Enzyme Activity (relative to DMSO controls): 73.56% and 73.24%
Human ACLY
  IC50: 3.34e-06 M and 2.28e-06 M and 2.5e-06 M
RIPK4
  % Enzyme Activity (relative to DMSO controls): 32.26% and 29.70%
BMX/ETK
  % Enzyme Activity (relative to DMSO controls): 49.55% and 47.76%
Aurora B
  % Enzyme Activity (relative to DMSO controls): 36.79% and 32.68%
AURORA C
  % Enzyme Activity (relative to DMSO controls): 78.81% and 72.15%
DDR2
  % Enzyme Activity (relative to DMSO controls): 88.28% and 79.94%
GSK3b
  % Enzyme Activity (relative to DMSO controls): 63.29% and 62.44%
Aurora A
  % Enzyme Activity (relative to DMSO controls): 12.44% and 12.42%
Human ACC1
  IC50: 1.63e-05 M and 1.33e-05 M and 1.25e-05 M
Human ACC2
  IC50: 9.41e-06 M and 7.72e-06 M and 9.06e-06 M
LIMK1
  % Enzyme Activity (relative to DMSO controls): 77.88% and 76.61%
NEK2
  % Enzyme Activity (relative to DMSO controls): 0.89% and 0.63%

## CC(C)(CCCCc1cccc(CCCCC(C)(C)C(=O)SCCNC(=O)CCNC(=O)[C@H](O)C(C)(C)COP(=O)(O)OP(=O)(O)OC[C@H]2O[C@@H](n3cnc4c(N)ncnc43)[C@H](O)[C@@H]2OP(=O)(O)O)c1)C(=O)O [Compound I-32-CoA, 6-[3-(5—Carboxy-5-methylhexyl)-phenyl]-2,2-dimethylhexanoic acid Coenzyme A Ester]
MELK
  % Enzyme Activity (relative to DMSO controls): 28.56% and 27.35%
MAPKAPK2
  % Enzyme Activity (relative to DMSO controls): 17.17% and 15.90%
FLT1/VEGFR1
  % Enzyme Activity (relative to DMSO controls): 52.06% and 51.61%
TNIK
  % Enzyme Activity (relative to DMSO controls): 70.02% and 66.13%
MLCK/MYLK
  % Enzyme Activity (relative to DMSO controls): 3.21% and 1.59%
PIM3
  % Enzyme Activity (relative to DMSO controls): 51.10% and 43.67%
ERK7/MAPK15
  % Enzyme Activity (relative to DMSO controls): 88.39% and 80.61%
CAMK2g
  % Enzyme Activity (relative to DMSO controls): 35.05% and 34.20%
c-Kit
  % Enzyme Activity (relative to DMSO controls): 49.53% and 49.21%
Human ACLY
  IC50: 9.88e-07 M and 1.22e-06 M and 1.44e-06 M
RIPK4
  % Enzyme Activity (relative to DMSO controls): 33.02% and 32.84%
BMX/ETK
  % Enzyme Activity (relative to DMSO controls): 49.54% and 43.87%
Aurora B
  % Enzyme Activity (relative to DMSO controls): 33.27% and 30.67%
AURORA C
  % Enzyme Activity (relative to DMSO controls): 48.46% and 46.83%
DDR2
  % Enzyme Activity (relative to DMSO controls): 29.98% and 25.40%
GSK3b
  % Enzyme Activity (relative to DMSO controls): 23.69% and 22.51%
Aurora A
  % Enzyme Activity (relative to DMSO controls): 13.04% and 11.95%
Human ACC1
  IC50: 5.07e-06 M and 5e-06 M and 6.03e-06 M
Human ACC2
  IC50: 5.02e-06 M and 4.22e-06 M and 3.33e-06 M
LIMK1
  % Enzyme Activity (relative to DMSO controls): 47.31% and 45.01%
NEK2
  % Enzyme Activity (relative to DMSO controls): 35.98% and 34.99%
